Results as given in US7109193B2, “Tricyclic diazepines tocolytic oxytocin receptor antagonists” (Wyeth, priority 2001, dated 2006).
Where a name gives a salt, the structure may show the parent alone.

Target: T1, human oxytocin receptor (Homo sapiens, UniProt P30559)
T1 construct: host or cells: CHO cells (pcDNA3.1 vector)
T1 sequence (P30559 1-389): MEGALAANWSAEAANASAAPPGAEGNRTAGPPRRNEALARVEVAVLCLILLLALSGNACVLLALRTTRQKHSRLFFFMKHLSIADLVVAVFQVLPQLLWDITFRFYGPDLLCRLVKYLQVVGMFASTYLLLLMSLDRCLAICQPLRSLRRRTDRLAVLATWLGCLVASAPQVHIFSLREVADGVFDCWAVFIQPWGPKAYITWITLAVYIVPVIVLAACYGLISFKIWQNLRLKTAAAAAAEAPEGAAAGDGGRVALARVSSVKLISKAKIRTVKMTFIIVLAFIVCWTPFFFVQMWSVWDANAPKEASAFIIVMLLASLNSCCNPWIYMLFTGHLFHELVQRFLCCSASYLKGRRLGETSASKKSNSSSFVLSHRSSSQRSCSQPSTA
Assay: Oxytocin binding in Chinese Hamster Ovary cell membranes expressing human oxytocin receptors
Settings: CHO cell membranes, [3H]oxytocin; for IC50: values in parentheses, read-out: OT (IC50); for inhibition at 0.1 µM: 100 nM, values without parentheses, read-out: OT % inhibition @ 100% nM

| Compound | IC50 | inhibition at 0.1 µM |
| --- | --- | --- |
| COc1ccccc1-c1ccc(C(=O)N2Cc3ccc(C(=O)N(C)CCN(C)C)n3Cc3ccccc32)cc1 [Example 90, N-[2-(Dimethylamino)ethyl]-10-[(2′-methoxy[1,1′-biphenyl]-4-yl)carbonyl]-N-methyl-10,11-dihydro-5H-pyrrolo[2,1-c][1,4]benzodiazepine-3-carboxamide] | – | 100% |
| COc1cccc(-c2ccc(C(=O)N3Cc4ccc(C(=O)N(C)CCN(C)C)n4Cc4ccccc43)cc2C)c1 [Example 89, N-[2-(Dimethylamino)ethyl]-10-[(3′-methoxy-2-methyl[1,1′-biphenyl]-4-yl)carbonyl]-N-methyl-10,11-dihydro-5H-pyrrolo[2,1-c][1,4]benzodiazepine-3-carboxamide] | – | 97% |
| COc1cccc(-c2ccc(C(=O)N3Cc4ccc(C(=O)N(C)CCN(C)C)n4Cc4ccccc43)cc2OC)c1 [Example 95, 10-[(2,3′-Dimethoxy[1,1′-biphenyl]-4-yl)carbonyl]-N-[2-(dimethylamino)ethyl]-N-methyl-10,11-dihydro-5H-pyrrolo[2,1-c][1,4]benzodiazepine-3-carboxamide] | – | 97% |
| Cc1cc(C(=O)N2Cc3ccc(C(=O)N4CCN(CCCN(C)C)CC4)n3Cc3ccccc32)ccc1-c1ccccc1C(F)(F)F [Example 4, [4-(3-Dimethylaminopropyl)-piperazin-1-yl]-[10-(2-methyl-2′-trifluoromethyl-[1,1′-biphenyl]-4-yl)carbonyl]-[10,11-dihydro-5H-pyrrolo[2,1-c][1,4]benzodiazepin-3-yl]-methanone] | 8.89 nM | – |
| COc1cc(C(=O)N2Cc3ccc(C(=O)N(C)CCCN(C)C)n3Cc3ccccc32)ccc1-c1ccccc1C(F)(F)F [Example 21, N-Methyl-[N-(3-dimethylamino)propyl]-10-{[2-methoxy-2′-trifluoromethyl-[1,1′-biphenyl]-4-yl]carbonyl}-10,11-dihydro-5H-pyrrolo[2,1-c][1,4]benzodiazepin-3-carboxamide] | 1.7 nM | – |
| CN(C)CCCNC(=O)c1ccc2n1Cc1ccccc1N(C(=O)c1ccc(-c3cccc4ccccc34)cc1Cl)C2 [Example 83, 10-[2-Chloro-4-(1-naphthyl)benzoyl]-N-[3-(dimethylamino)propyl]-10,11-dihydro-5H-pyrrolo[2,1-c][1,4]benzodiazepine-3-carboxamide] | – | 10% |
| Cc1cc(C(=O)N2Cc3ccc(C(=O)N4CCNCC4)n3Cc3ccccc32)ccc1-c1ccccc1C(F)(F)F [Example 7, 10,11-Dihydro-10-[[2-methyl-2′-trifluoromethyl-[1,1′-biphenyl]-4-yl]carbonyl]-3-(1-piperazinylcarbonyl)-5H-pyrrolo[2,1-c][1,4]benzodiazepine hydrochloride salt] | 11.4 nM | – |
| Cc1cc(C(=O)N2Cc3ccc(C(=O)N4CCN(C)CC4)n3Cc3ccccc32)ccc1-c1ccccc1C(F)(F)F [Example 2, (4-Methyl-piperazin-1-yl)-[10-(2-methyl-2′-trifluoromethyl-[1,1′-biphenyl]-4-yl)-carbonyl]-10,11-dihydro-5H-pyrrolo[2,1-c][1,4]benzodiazepin-3-yl-methanone] | 12.5 nM | – |
| COc1ccccc1-c1ccc(C(=O)N2Cc3ccc(C(=O)N(C)CCN(C)C)n3Cc3ccccc32)cc1OC [Example 94, 10-[(2,2′-Dimethoxy[1,1′-biphenyl]-4-yl)carbonyl]-N-[2-(dimethylamino)ethyl]-N-methyl-10,11-dihydro-5H-pyrrolo[2,1-c][1,4]benzodiazepine-3-carboxamide] | – | 94% |
| COc1cc(C(=O)N2Cc3ccc(C(=O)N(C)CCN(C)C)n3Cc3ccccc32)ccc1-c1cccc2ccccc12 [Example 93, N-[2-(Dimethylamino)ethyl]-10-[3-methoxy-4-(1-naphthyl)benzoyl]-N-methyl-10,11-dihydro-5H-pyrrolo[2,1-c][1,4]benzodiazepine-3-carboxamide] | – | 90% |
| Cc1ccc(-c2ccc(C(=O)N3Cc4cccn4Cc4ccccc43)cc2)c2ccccc12 [Example 25, [4-(4-Methyl-naphthalen-1-yl)phenyl][10,11-dihydro-5H-pyrrolo[2,1-c][1,4]benzodiazepin-10-yl]methanone] | 55.8 nM | – |

Next, values leading:

| IC50 | inhibition at 0.1 µM | Compound |
| --- | --- | --- |
| 4.26 nM | – | COc1cc(-c2ccccc2C)c(Cl)cc1C(=O)N1Cc2ccc(C(=O)N3CC[C@@H](N(C)C)C3)n2Cc2ccccc21 [Example 273, {10-[(6-Chloro-3-methoxy-2′-methyl[1,1′-biphenyl]-4-yl)carbonyl]-10,11-dihydro-5H-pyrrolo[2,1-c][1,4]benzodiazepin-3-yl}[(3R)-3-(dimethylamino)pyrrolidinyl]methanone] |
| 2.48 nM | – | COc1cc(-c2ccccc2C)c(Cl)cc1C(=O)N1Cc2ccc(C(=O)N(C)CCCN(C)C)n2Cc2ccccc21 [Example 98, 10-[(6-Chloro-3-methoxy-2′-methyl[1,1′-biphenyl]-4-yl)carbonyl]-N-[3-(dimethylamino)propyl]-N-methyl-10,11-dihydro-5H-pyrrolo[2,1-c][1,4]benzodiazepine-3-carboxamide] |
| 3.66 nM | – | COc1ccccc1-c1ccc(C(=O)N2Cc3ccc(C(=O)N4CCN(CCN5CCOCC5)CC4)n3Cc3ccccc32)cc1C [Example 206, {10-[(2′-Methoxy-2-methyl[1,1′-biphenyl]-4-yl)carbonyl]-10,11-dihydro-5H-pyrrolo[2,1-c][1,4]benzodiazepin-3-yl}{4-[2-(4-morpholinyl)ethyl]-1-piperazinyl}methanone] |
| 5.39 nM | – | COc1cc(-c2ccccc2C)c(Cl)cc1C(=O)N1Cc2ccc(C(=O)N3CCN(CCN(C)C)CC3)n2Cc2ccccc21 [Example 197, {10-[(6-Chloro-3-methoxy-2′-methyl[1,1′-biphenyl]-4-yl)carbonyl]-10,11-dihydro-5H-pyrrolo[2,1-c][1,4]benzodiazepin-3-yl}{4-[2-(dimethylamino)ethyl]-1-piperazinyl}methanone] |
| 7.14 nM | – | Cc1cc(C(=O)N2Cc3ccc(C(=O)N(C)CCCN(C)C)n3Cc3ccccc32)ccc1-c1ccccc1C(F)(F)F [Example 97, N-[3-(Dimethylamino)propyl]-N-methyl-10-{[2-methyl-2′-(trifluoromethyl)[1,1′-biphenyl]-4-yl]carbonyl}-10,11-dihydro-5H-pyrrolo[2,1-c][1,4]benzodiazepine-3-carboxamide] |
| 2.61 nM | – | COc1ccccc1-c1ccc(C(=O)N2Cc3ccc(C(=O)N4CC[C@@H](N(C)C)C4)n3Cc3ccccc32)cc1C [Example 272, [(3R)-3-(Dimethylamino)pyrrolidinyl]{10-[(2′-methoxy-2-methyl[1,1′-biphenyl]-4-yl)carbonyl]-10,11-dihydro-5H-pyrrolo[2,1-c][1,4]benzodiazepin-3-yl}methanone] |
| – | 98% | COc1ccccc1-c1ccc(C(=O)N2Cc3ccc(C(=O)N(C)CCCN(C)C)n3Cc3ccccc32)cc1C [Example 100, N-[3-(Dimethylamino)propyl]-10-[(2′-methoxy-2-methyl[1,1′-biphenyl]-4-yl)carbonyl]-N-methyl-10,11-dihydro-5H-pyrrolo[2,1-c][1,4]benzodiazepine-3-carboxamide] |
| 6.29 nM | – | Cc1cc(C(=O)N2Cc3ccc(C(=O)N4CC[C@@H](N(C)C)C4)n3Cc3ccccc32)ccc1-c1ccccc1C(F)(F)F [Example 271, [(3R)-3-(Dimethylamino)pyrrolidinyl](10-{[2-methyl-2′-(trifluoromethyl)[1,1′-biphenyl]-4-yl]carbonyl}-10,11-dihydro-5H-pyrrolo[2,1-c][1,4]benzodiazepin-3-yl)methanone] |
| 11.1 nM | – | C=CCN1CCN(C(=O)c2ccc3n2Cc2ccccc2N(C(=O)c2ccc(-c4ccccc4OC)cc2)C3)CC1 [Example 221, (4-Allyl-1-piperazinyl){10-[(2′-methoxy[1,1′-biphenyl]4-yl)carbonyl]-10,11-dihydro-5H -pyrrolo[2,1-c][1,4]benzodiazepin-3-yl}methanone] |
| 7.87 nM | – | COc1cccc(-c2ccc(C(=O)N3Cc4ccc(C(=O)N5CC[C@@H](N(C)C)C5)n4Cc4ccccc43)cc2C)c1 [Example 278, [(3R)-3-(Dimethylamino)pyrrolidinyl]{10-[(3′-methoxy-2-methyl[1,1′-biphenyl]-4-yl)carbonyl]-10,11-dihydro-5H-pyrrolo[2,1-c][1,4]benzodiazepin-3-yl}methanone] |
| 11.6 nM | – | Cc1cc(C(=O)N2Cc3ccc(C(=O)N4CCN(CCN(C)C)CC4)n3Cc3ccccc32)ccc1-c1ccccc1C(F)(F)F [Example 196, {4-[2-(Dimethylamino)ethyl]-1-piperazinyl}(10-{[2-methyl-2′-(trifluoromethyl)[1,1′-biphenyl]-4-yl]carbonyl}-10,11-dihydro-5H-pyrrolo[2,1-c][1,4]benzodiazepin-3-yl)methanone] |
